# Like-named read-outs stand apart in the source and are kept apart here.
# Assays:
# [1] = target: full-length HAQ STING (Homo sapiens (Human), UniProt Q86WV6, G230A/H232R/R293Q/R71H); assay: 3H-cGAMP filtration binding assay (HAQ STING); conditions: competition with tritiated cGAMP, HAQ STING membrane
# Summary of the method: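 Competition binding of compounds against 8 nM [3H]cGAMP working stock on Hi-Five cell membranes overexpressing full-length HAQ STING; compound and membrane preincubated 60 min at RT before ligand addition. Bound radioactivity read by filtration and scintillation counting; percent activity normalized to controls, EC50 from 4-parameter fit.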
# [2] = tested on: IFN-β secretion in THP1 cells; assay: IFN-β secretion in THP1 cell culture (5 h); type: cell-based, human
# Summary of the method: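 THP1 cells incubated with compound for 5 h at 37 °C, 5% CO2, and secreted IFN-β in supernatant quantified by AlphaLISA. Percent effect normalised to 30 uM cGAMP positive control and 0.3% DMSO. EC50 from 4-parameter fit.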
# [3] = read-out: EC50 (nM), 3H-cGAMP filtration binding assay for HAQ STING
# [4] = IFN-β secretion in THP1 cell culture, 5 h, compound at 30 μM, percent activation relative to 2′3′-cGAMP
# Sequence of full-length HAQ STING (Q86WV6 other isoform, or with tags, fused parts or gaps, stated change not applied): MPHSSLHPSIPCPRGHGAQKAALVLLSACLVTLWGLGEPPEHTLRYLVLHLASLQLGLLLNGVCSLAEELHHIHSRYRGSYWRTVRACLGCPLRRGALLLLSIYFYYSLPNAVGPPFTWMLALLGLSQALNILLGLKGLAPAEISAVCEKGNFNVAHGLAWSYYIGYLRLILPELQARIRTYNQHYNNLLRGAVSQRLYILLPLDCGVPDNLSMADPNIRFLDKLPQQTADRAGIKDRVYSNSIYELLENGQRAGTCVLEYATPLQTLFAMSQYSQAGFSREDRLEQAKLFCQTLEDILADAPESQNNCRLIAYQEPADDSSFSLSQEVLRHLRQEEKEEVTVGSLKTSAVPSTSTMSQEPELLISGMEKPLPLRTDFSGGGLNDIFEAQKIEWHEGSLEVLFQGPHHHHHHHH
SMILES,"EC50 [1, 3] [nM]","% Effect at 30 μM relative to 2′3′-cGAMP [2, 4] [%]","EC50 ([1]; EC50 (nM), 3H-cGAMP filtration binding assay for HAQ STING) [nM]",% Effect at 30 μM relative to 2′3′-cGAMP [2] [%]
"Nc1nc2c(ncn2[C@@H]2O[C@@]34CO[C@H]3[C@H]2OP(=O)(O)OC[C@H]2O[C@@H](n3cnc5c(=O)[nH]cnc53)[C@H](O)[C@@H]2OP(=O)(O)OC4)c(=O)[nH]1 [Example 316, 2-amino-9-[(2aR,6aS,7R,8R,9aR,14R,14aS,15R)-5,7,12-trihydroxy-5,12-dioxido-8-(6-oxo-1,6-dihydro-9H-purin-9-yl)hexahydro-6aH,2a,14-(epoxymethano)furo [3,2-d]oxeto[2,3-k][1,3,7,9,2,8]tetraoxadiphosphacyclotridecin-15(2H,3H)-yl]-1,9-dihydro-6H-purin-6-one]",2320,12,–,–
"Nc1ncnc2c1ncn2[C@@H]1O[C@@H]2COP(=O)(O)O[C@H]3C[C@H](n4cnc5c(=O)[nH]cnc54)O[C@@H]3COP(=O)(O)O[C@@H]1[C@@H]2O [Example 291, 9-[(5R,7R,8R,12aR,14R,15aS,16R)-7-(6-amino-9H-purin-9-yl)-2,10,16-trihydroxy-2,10-dioxidooctahydro-12H-5,8-methanofuro[3,2-l][1,3,6,9,11,2,10]pentaoxadiphosphacyclotetradecin-14-yl]-1,9-dihydro-6H-purin-6-one]",64.7,98,–,–
"C[C@@H]1OP(=O)(O)O[C@@H]2C[C@@H](COP(=O)(O)O[C@H]3[C@@H](O)[C@H](n4cnc5c(N)ncnc54)O[C@H]31)O[C@H]2n1cnc2c(=O)[nH]c(N)nc21 [Example 18, 2-amino-9-[(5S,7R,8R,12S,12aS,14R,15R,15aS)-14-(6-amino-9H-purin-9-yl)-2,10,15-trihydroxy-12-methyl-2,10-dioxidooctahydro-12H-5,8-methanofuro[3,2-l][1,3,6,9,11,2,10]pentaoxadiphosphacyclotetradecin-7-yl]-1,9-dihydro-6H-purin-6-one]",53.9,74,–,–
"CCc1ncnc2c1ncn2[C@@H]1O[C@@H]2COP(=O)(O)O[C@@H]3[C@H](O)[C@@H](COP(=O)(O)O[C@H]2[C@H]1O)O[C@H]3n1cnc2c(=O)[nH]c(N)nc21 [Example 56, 2-amino-9-[(5R,7R,8R,12aR,14R,15R,15aS,16R)-14-(6-ethyl-9H-purin-9-yl)-2,10,15,16-tetrahydroxy-2,10-dioxidooctahydro-12H-5,8-methanofuro[3,2-l][1,3,6,9,11,2,10]pentaoxadiphosphacyclotetradecin-7-yl]-1,9-dihydro-6H-purin-6-one]",89.4,64,–,–
"Nc1nc2c(ncn2[C@@H]2O[C@@H]3CO[P@@](=O)(S)O[C@H]4C[C@H](n5cnc6c(=O)[nH]cnc65)O[C@@H]4CO[P@@](=O)(S)O[C@@H]2[C@@H]3F)c(=O)[nH]1 (single isomer, unassigned) [Example 307]",–,–,< 1,174

# More lines, main results first:
"EC50 [1, 3] [nM]",SMILES,"% Effect at 30 μM relative to 2′3′-cGAMP [2, 4] [%]","EC50 ([1]; EC50 (nM), 3H-cGAMP filtration binding assay for HAQ STING) [nM]",% Effect at 30 μM relative to 2′3′-cGAMP [2] [%]
5.8,"Nc1ncnc2c1ncn2[C@@H]1O[C@@H]2COP(=O)(O)O[C@@H]3[C@H](O)[C@@H](COP(=O)(O)O[C@H]2[C@H]1O)O[C@H]3c1n[nH]c2c(=O)[nH]cnc12 [Example 74, 3-[(5R,7S,8R,12aR,14R,15R,15aS,16R)-14-(6-amino-9H-purin-9-yl)-2,10,15,16-tetrahydroxy-2,10-dioxidooctahydro-12H-5,8-methanofuro[3,2-l][1,3,6,9,11,2,10]pentaoxadiphosphacyclotetradecin-7-yl]-1,6-dihydro-7H-pyrazolo[4,3-d]pyrimidin-7-one]",57,–,–
30,"Nc1nc2c(ncn2[C@@H]2O[C@@H]3COP(=O)(O)O[C@H]4[C@@H](O)[C@H](c5n[nH]c6c(N)ncnc56)O[C@@H]4COP(=O)(O)O[C@@H]2[C@@H]3O)c(=O)[nH]1 [Example 49, 2-amino-9-[(5R,7R,8R,12aR,14S,15S,15aS,16R)-14-(7-amino-1H-pyrazolo[4,3-d]pyrimidin-3-yl)-2,10,15,16-tetrahydroxy-2,10-dioxidooctahydro-12H-5,8-methanofuro[3,2-l][1,3,6,9,11,2,10]pentaoxadiphosphacyclotetradecin-7-yl]-1,9-dihydro-6H-purin-6-one]",74,–,–
4.8,"CO[C@H]1[C@H]2OP(=O)(O)OC[C@H]3O[C@@H](n4cnc5c(O)ncnc54)[C@H](O)[C@@H]3OP(=O)(O)OC[C@H]1O[C@H]2n1cnc2c(=O)[nH]c(N)nc21 [Example 301, 2-amino-9-[(5R,7R,8R,12aR,14R,15R,15aS,16R)-2,10,15-trihydroxy-14-(6-hydroxy-9H-purin-9-yl)-16-methoxy-2,10-dioxidooctahydro-12H-5,8-methanofuro[3,2-l][1,3,6,9,11,2,10]pentaoxadiphosphacyclotetradecin-7-yl]-1,9-dihydro-6H-purin-6-one]",107,–,–
24.6,"Nc1nc2c(ncn2[C@@H]2O[C@@H]3COP(=O)(O)O[C@H]4[C@@H](O)[C@H](n5cnc6c(N)nc(F)nc65)O[C@@H]4COP(=O)(O)O[C@@H]2[C@@H]3O)c(=O)[nH]1 [Example 34, 2-amino-9-[(5R,7R,8R,12aR,14R,15R,15aS,16R)-14-(6-amino-2-fluoro-9H-purin-9-yl)-2,10,15,16-tetrahydroxy-2,10-dioxidooctahydro-12H-5,8-methanofuro[3,2-l][1,3,6,9,11,2,10]pentaoxadiphosphacyclotetradecin-7-yl]-1,9-dihydro-6H-purin-6-one]",125,–,–
6.4,"Nc1ncnc2c1ccn2[C@@H]1O[C@@H]2COP(=O)(O)O[C@@H]3C[C@@H](COP(=O)(O)O[C@H]2[C@H]1O)O[C@H]3n1cnc2c(=O)[nH]cnc21 [Example 67, 9-[(5S,7R,8R,12aR,14R,15R,15aS)-14-(4-amino-7H-pyrrolo[2,3-d]pyrimidin-7-yl)-2,10,15-trihydroxy-2,10-dioxidooctahydro-12H-5,8-methanofuro [3,2-l][1,3,6,9,11,2,10]pentaoxadiphosphacyclotetradecin-7-yl]-1,9-dihydro-6H-purin-6-one]",111,–,–
1.7,"Nc1nc2c(ncn2[C@@H]2O[C@@H]3COP(=O)(O)O[C@H]4[C@@H](O)[C@H](n5cnc6c(N)ncnc65)O[C@@H]4COP(=O)(O)O[C@@H]2[C@@H]3O)c(=S)[nH]1 [Example 53, 2-amino-9-[(5R,7R,8R,12aR,14R,15R,15aS,16R)-14-(6-amino-9H-purin-9-yl)-2,10,15,16-tetrahydroxy-2,10-dioxidooctahydro-12H-5,8-methanofuro[3,2-l][1,3,6,9,11,2,10]pentaoxadiphosphacyclotetradecin-7-yl]-1,9-dihydro-6H-purine-6-thione]",127,–,–
42.5,"N#Cc1cn([C@@H]2O[C@@H]3COP(=O)(O)O[C@@H]4[C@H](O)[C@@H](COP(=O)(O)O[C@H]3[C@H]2O)O[C@H]4n2cnc3c(=O)[nH]c(N)nc32)c2ncnc(N)c12 [Example 60, 4-amino-7-[(5R,7R,8R,12aR,14R,15R,15aS,16R)-7-(2-amino-6-oxo-1,6-dihydro-9H-purin-9-yl)-2,10,15,16-tetrahydroxy-2,10-dioxidooctahydro-12H-5,8-methanofuro[3,2-l][1,3,6,9,11,2,10]pentaoxadiphosphacyclotetradecin-14-yl]-7H-pyrrolo[2,3-d]pyrimidine-5-carbonitrile]",12,–,–

# Source: patent US11453697B1, “Cyclic di-nucleotide compounds as sting agonists” (Merck Sharp & Dohme Corp., priority 2015, dated 2022)
